Measurements as given in US20250011368A1, “DLL3 TARGETING PEPTIDES AND CONSTRUCTS THEREOF” (MARIANA ONCOLOGY INC., priority 2023, published 2025).
pKd: −log10 of the molar value. Bridge positions count the residues as written; N and C are the ends. Square brackets hold non-standard residues; d marks the D form. Peptide text beside a SMILES is read from it. * marks the point of attachment. DOTA = O=C(O)CN1CCN(CC(=O)O)CCN(CC(=O)*)CCN(CC(=O)O)CC1; Ala(morpholin-4-yl) = N[C@@H](CN1CCOCC1)C(=O)O; 2Nal = N[C@@H](Cc1ccc2ccccc2c1)C(=O)O; 3Pal = N[C@@H](Cc1cccnc1)C(=O)O; 4Pal = N[C@@H](Cc1ccncc1)C(=O)O

Experiments:
[1] = test system: CT26.DLL3 cells; test: Internalization (out of bound fraction) of [177Lu]Lu-test peptide, CT26.DLL3 cells; format: cell-based; conditions: 1 hour at 37° C., glycine pH 2.5 wash
Procedure: (§1) [^177Lu]LuCl3 was received from venders in HCl solution. For every mCi of [^177Lu]LuCl3 added to the reaction vial (1.5 mL Eppendorf vial), ammonium acetate buffer (0.2 M, pH 4.9, 100 μL, containing 1% w/v ascorbic acid and 6% v/v ethanol) and peptide conjugate (1 nmol). A peptide conjugate of the present disclosure is also referred to herein as a “chelator-peptide”. The pH of the solution was determined to be approximately 5 by using pH strips. The reaction vial was incubated at 80° C., 700 RPM for 17-20 minutes. A sample from the reaction was analyzed by RP-HPLC using an Agilent Infinity II 1260 HPLC to determine reaction completion and radiochemical purity of [^177Lu]Lu-chelator-peptide. HPLC conditions: Waters XBridge BEH C18 Column, 130 Å, 3.5 um, 4.6 mm×250 mm; mobile phase: Solvent A=water (with 0.1% formic acid), solvent B=acetonitrile (with 0.1% formic acid). Gradients: 25-45% B in 10 minutes, 45-65% B in 12 minutes, 65-90% in 6 minutes at a flow rate of 0.5 mL/minute. Required amounts of the product was formulated in 1% PBSA for cell studies.
(§2) The study was conducted using SHP-77, CT26.WT, and CT26.DLL3 cells (Table 7) Adherent cell studies: The cells were cultured in appropriate culture media (20 mL) in tissue culture treated T150 flasks at 37° C. and 5% CO2. Adherent cells were detached (60-70% confluent) using 5 mL Versene at 37° C. for 3 minutes. After confirming the viability using countess and count of detached cells using Trypan blue, the cells were centrifuged at 4° C. for 5 minutes (1,000 rpm). The cell pellet obtained was washed once with PBS and resuspended in 1% PBSA to obtain the desired cell concentration (5-25 million cells/mL).
(§3) Cell numbers used for the assay were in the range of 5 million cells/condition −25 million cells/condition.
(§4) Total uptake: Cells were incubated with 300 μL (0.8 μCi) of the incubation buffer (containing radiolabeled peptide [^177Lu] Lu-test peptide) for 1 hour at 37° C. (Table 8). Post incubation, the cells were pelleted and washed 2 times using cold PBS+1% BSA. The supernatant and washes were combined and counted together as “unbound fraction” in a gamma counter. The cells were then resuspended in 300 μL of 1% PBS+1% BSA and counted in the gamma counter as “bound fraction”.
Internalization: The resuspended cells in 300 μl of 1% PBSA and counted in the gamma counter as “bound fraction” were collected in 1.5 mL Eppendorf tube and pelleted. The pelleted cells were incubated with 300 μl of 50 mM Glycine pH=2.5 for 3 minutes and then pelleted discarding the supernatant. This process was repeated one more time. The pelleted cells were washed with 300 μl of cold 1% PBSA and then resuspended in 300 μl 0.3M NaOH. This was counted in the gamma counter as “internalized fraction”.
(§5) In these Tables, “A” represents %≤25; “B” represents 25<%≤50; “C” represents %>50.

[2] = target: T1, human DLL3 (Homo sapiens, UniProt Q9NYJ7); test: Affinity determination by Surface Plasmon Resonance (SPR); format: binding; conditions: 25° C., biotinylated human DLL3 immobilized on streptavidin sensor chip, 1:1 binding model; read-out: SPR KD
T1 sequence (Q9NYJ7 27-618): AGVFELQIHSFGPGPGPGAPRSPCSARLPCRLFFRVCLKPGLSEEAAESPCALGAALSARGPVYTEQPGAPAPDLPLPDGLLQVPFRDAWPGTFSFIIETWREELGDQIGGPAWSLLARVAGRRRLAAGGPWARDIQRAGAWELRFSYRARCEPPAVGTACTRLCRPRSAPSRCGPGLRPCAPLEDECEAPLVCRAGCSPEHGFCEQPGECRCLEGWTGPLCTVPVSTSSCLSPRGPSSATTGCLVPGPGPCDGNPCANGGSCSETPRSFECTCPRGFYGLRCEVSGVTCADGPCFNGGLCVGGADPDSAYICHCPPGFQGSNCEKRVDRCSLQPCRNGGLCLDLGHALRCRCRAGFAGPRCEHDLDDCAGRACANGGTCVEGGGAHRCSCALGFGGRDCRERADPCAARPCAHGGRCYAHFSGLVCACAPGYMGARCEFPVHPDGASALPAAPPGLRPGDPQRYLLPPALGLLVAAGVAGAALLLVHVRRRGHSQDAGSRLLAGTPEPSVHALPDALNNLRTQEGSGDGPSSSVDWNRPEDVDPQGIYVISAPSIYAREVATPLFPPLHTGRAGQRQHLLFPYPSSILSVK
Method in brief: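 Kinetic and affinity constants were derived by fitting sensorgrams to a 1:1 binding model. Graded compound concentrations flowed at 100 μL/minute in 20 mM phosphate running buffer with 2% DMSO over streptavidin-immobilized biotinylated human DLL3, reference-subtracted.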

[3] = test system: CT26.DLL3 cells; test: Cell binding (total uptake) of [177Lu]Lu-test peptide, CT26.DLL3 cells; format: cell-based; conditions: 1 hour at 37° C.
Procedure: as §1, §2, §3, §4, §5

[4] = test system: SHP-77 tumors; test: Ex vivo biodistribution of radiolabeled peptides in nude mice bearing SHP-77 tumors; conditions: [177Lu]Lu labelling, nude mice bearing SHP-77 tumors (n = 3), 24 hours post-injection
Procedure: Mice were intravenously injected (via the lateral tail vein) with a bolus dose of the radiolabeled peptides for ex vivo biodistribution studies when tumor volumes were in range of 200-400 mm^3 for xenograft mice and when age of the mice was 5-7 weeks for tumor naïve mice studies. To assess the amount of radionuclide injected into individual mice the syringe was assayed in a dose calibrator before and after injection for [^177Lu]Lu-peptide.
Mice were euthanized at pre-determined time points and selected tissues were resected and collected into pre-weighed tubes. The tubes were then reweighed post resection, the difference giving the weight of each tissue. Radioactivity in each tissue was measured using a gamma counter. Counts were decay corrected to the time of injection and percentage of injected activity per gram (% IA/g) was calculated for each tissue based on the injected activity into each individual mouse. Injected activity was converted to counts based on the sensitivity of the gamma counter. The counts in tissue were then converted to the percentage of injected activity and this was divided by the mass of tissue to give % IA/g.

Row | pKd [2] | kidney uptake (% IA/g) [4] | tumor uptake (% IA/g) [4] | Structure (SMILES) | % Internalization (out of bound fraction) [1] | % Binding [3]
1 | > 9.00 | C (0 < % IA/g ≤ 10 in kidney) | A (0 < % IA/g ≤ 5 in tumor) | CC[C@H](C)[C@H](NC(=O)[C@@H](NC(=O)[C@H](Cc1c[nH]c2ccccc12)NC(C)=O)[C@@H](C)O)C(=O)N[C@H]1CSSC[C@@H](C(=O)N[C@@H](Cc2c[nH]c3ccccc23)C(=O)N2CCC[C@H]2C(=O)N[C@H](CCCCNC(=O)CN2CCN(CC(=O)O)CCN(CC(=O)O)CCN(CC(=O)O)CC2)C(N)=O)NC(=O)[C@H](CC(=O)O)NC(=O)[C@H](Cc2cnc[nH]2)NC(=O)[C@H](Cc2ccc3ccccc3c2)NC(=O)[C@H](CC(N)=O)NC(=O)[C@H](CN2CCOCC2)NC1=O [compound 261, Ac-W-T-I-C(3)-[3-(1-morpholinyl)-Ala]-N-(2Nal)-H-D-C(3)-W-P-[D-Lys(DOTA)]-NH2] (Ac-WTIC[Ala(morpholin-4-yl)]N[2Nal]HDCWP[dK](DOTA)-NH2; disulfide 4-10) | B (25<%≤50) | A (%≤25)
2 | > 9.00 | C (0 < % IA/g ≤ 10 in kidney) | A (0 < % IA/g ≤ 5 in tumor) | CC[C@H](C)[C@H](NC(=O)[C@@H](NC(=O)[C@H](Cc1c[nH]c2ccccc12)NC(C)=O)[C@@H](C)O)C(=O)N[C@H]1CSSC[C@@H](C(=O)N[C@@H](Cc2c[nH]c3ccccc23)C(=O)N2CCC[C@H]2C(=O)N[C@H](CCCCNC(=O)CN2CCN(CC(=O)O)CCN(CC(=O)O)CCN(CC(=O)O)CC2)C(N)=O)NC(=O)[C@H](CC(=O)O)NC(=O)[C@H](Cc2cnc[nH]2)NC(=O)[C@H](Cc2ccc3ccccc3c2)NC(=O)[C@H](CC(N)=O)NC(=O)[C@H](Cc2cccnc2)NC1=O [compound 263, Ac-W-T-I-C(3)-(3Pya)-N-(2Nal)-H-D-C(3)-W-P-[D-Lys(DOTA)]-NH2] (Ac-WTIC[3Pal]N[2Nal]HDCWP[dK](DOTA)-NH2; disulfide 4-10) | B (25<%≤50) | A (%≤25)
3 | > 9.00 | C (0 < % IA/g ≤ 10 in kidney) | A (0 < % IA/g ≤ 5 in tumor) | CC[C@H](C)[C@H](NC(=O)[C@@H](NC(=O)[C@H](Cc1c[nH]c2ccccc12)NC(C)=O)[C@@H](C)O)C(=O)N[C@H]1CSSC[C@@H](C(=O)N[C@@H](Cc2c[nH]c3ccccc23)C(=O)N2CCC[C@H]2C(=O)N[C@H](CCCCNC(=O)CN2CCN(CC(=O)O)CCN(CC(=O)O)CCN(CC(=O)O)CC2)C(N)=O)NC(=O)[C@H](CC(=O)O)NC(=O)[C@H](Cc2cnc[nH]2)NC(=O)[C@H](Cc2ccc3ccccc3c2)NC(=O)[C@H](CC(N)=O)NC(=O)[C@H](Cc2ccncc2)NC1=O [compound 264, Ac-W-T-I-C(3)-(4Pya)-N-(2Nal)-H-D-C(3)-W-P-[D-Lys(DOTA)]-NH2] (Ac-WTIC[4Pal]N[2Nal]HDCWP[dK](DOTA)-NH2; disulfide 4-10) | B (25<%≤50) | A (%≤25)
